Experimental data reported in US12630542B2, “Compounds and their use as therapeutically active substances in the treatment and/or prevention of diseases involving the retinal pigment epithelium” (ENDOGENA THERAPEUTICS, INC., priority 2020, dated 2026).

Tested on: iPSC-fRPE cells
Test: Compound screen for RPE pigmentation in iPSC-fRPE cells (light absorbance at 510 nm)
Type: cell-based, human
Conditions: for pigmentation of RPE cells / activity, result in words: qualitative statement; for Relative Pigmentation: test compound 5 μM in 0.1% DMSO, 32 days, absorbance at 510 nm, relative to plate internal DMSO controls (control = 1)
Method: Induced pluripotent stem cell-derived fetal RPE (iPSC-fRPE) cells acquired from the University of California, Santa Barbara, were generated from human fetal RPE cells that were isolated and reprogramed to iPSC, then differentiated and sorted for cellular markers to collect RPE progenitors. Vials were transported frozen on dry ice and stored in minus 80° C.
For the phenotypic screens, iPSC-fRPE cells were thawed and cultured in Matrigel-coated flasks with N1VA media containing 1×MEM solution supplemented with 2.2 g/L Sodium Bicarbonate, 0.25 mg/ml Taurine, 0.02 ug/ml Hydrocortisone, 0.013 ug/ml Triiodo Thyronine, 0.1 ug/ml Lipoic acid, 1% MEM Non-Essential Amino Acids, 1% Penicillin/Streptomycin, 2% Neurocult SM1 supplement and 1% N1 supplement. For the initial cultures, Thiazovivin was added to the media at 2 uM for the first 24 hr of incubation, after which the media was replaced with fresh N1VA media for additional three-day incubation at 37° C. with 5% CO2.
iPSC-fRPE cells were plated with N1VA media at a density of 10,000 cells per well in Matrigel-coated 96-well plates and cultured for 24 hr prior to the treatment with test compounds at a final concentration of 5 μM in 0.1% DMSO. Internal controls for each test plate were (a) 0.1% DMSO as a negative control and (b) 0.1% DMSO+10 ng/ml human recombinant bFGF (STEMCELL) as a positive control. To identify hits that promote RPE pigmentation, cells were maintained for a period of 32 days and treated with medium containing the test or control compounds according to the media exchange regimen (FIG. 1). The degree of pigmentation was quantified by measuring the light absorbance at 510 nm with Cytation5 imaging reader (BIOTEK). Compounds that increased the normalized absorbance endpoint by more than three standard deviations over the average DMSO readout per plate were considered as hits. Pigmentation values are finally reported relative to plate internal DMSO controls.

In the case of O=C(Nc1ccc(-c2cnco2)c(Cl)c1)C1COc2ccccc2C1 (single isomer, unassigned; (-)) [Compound 1, (−)-N-(3-chloro-4-(1,3-oxazol-5-yl)phenyl)chromane-3-carboxamide], the “pigmentation of RPE cells / activity, result in words” value is reported as “excellent results” and the “Relative Pigmentation” value is reported as 3.05.
In the case of “N-(3-chloro-4-(oxazol-5-yl)phenyl)-1,2,3,4-tetrahydronaphthalene-2-carboxamide [Compound 5]”, the “Relative Pigmentation” value is reported as 1.18.
In the case of O=C(Nc1ccc(-c2cnco2)c(Cl)c1)C1COc2ccccc2C1 (single isomer, unassigned; (+)) [Compound 2, (+)-N-(3-chloro-4-(1,3-oxazol-5-yl)phenyl)chromane-3-carboxamide], the “Relative Pigmentation” value is reported as 1.68.
O=C(Nc1ccc(-c2cnco2)c(Cl)c1)C1Cc2ccccc2CO1 (racemic) [Compound 3, N-(3-chloro-4-(oxazol-5-yl)phenyl)isochromane-3-carboxamide] was tested, and the “Relative Pigmentation” value was 1.66.
For O=C(Nc1ccc(-c2cnco2)c(Cl)c1)C1Cc2ccccc2C1 [Compound 7, N-(3-chloro-4-(oxazol-5-yl)phenyl)-2,3-dihydro-1H-indene-2-carboxamide], the “pigmentation of RPE cells / activity, result in words” value was “excellent results” and the “Relative Pigmentation” value was 2.92.
For O=C(Nc1ccc(-c2cnco2)c(Cl)c1)C1CCOc2ccccc21 (racemic) [Compound 4, N-(3-chloro-4-(oxazol-5-yl)phenyl) chromane-4-carboxamide], the “Relative Pigmentation” value was 2.65.
O=C(Nc1ccc(-c2cnco2)c(Cl)c1)C1CCc2ccccc21 (racemic) [Compound 6, N-(3-chloro-4-(oxazol-5-yl)phenyl)-2,3-dihydro-1H-indene-1-carboxamide] was tested, and the “Relative Pigmentation” value was 1.86.
